Test results as given in BigSolDB 2.1.

c1ccc2c(c1)ccc1ccccc12
solubility (mole fraction)
Settings	293 K	303 K	313 K	323 K
in 2,2,4-trimethylpentane	0.019	0.036	0.0874	0.138
in n-heptane	0.0154	0.0247	0.036	0.0519
in toluene	0.461	0.499	0.577	0.604
